# From paper PMC6268935, “Antiatherogenic Properties of Acetone Extract of Alpinia zerumbet Seeds” (Molecules, 2012)
# Where two headings read alike, the source gives them in different places.
# What was measured:
# [1] = tested on: accelerated atherosclerosis in native hearts; parameters: method as in PMID 8419015; conditions: native hearts of a rabbit heart transplant model; cited from earlier work
# [2] = normal human; cited from earlier work
# [3] = target: T1, 15-Lipoxygenase from soybean (15-LO) (Glycine max, UniProt P08170); test: 15-Lipoxygenase inhibition assay (linoleic acid substrate); format: biochemical
# T1 construct: purchased Cayman Chemical Company
# Procedure: The final enzyme concentration was 500 units/mL and the test samples were dissolved in DMSO solutions. All measurements were carried out at least twice, in each instance using caffeic and ferulic acids, a well-known inhibitor of 15-LO, as positive controls.
# [4] = tested on: rat hepatic stellate cells; parameters: method as in PMID 15787259; conditions: cited from earlier work
# [5] = tested on: low-density lipoprotein cholesterol from human plasma (LDL); test: LDL oxidation inhibition assay (CuSO4-induced, TBARS); format: biochemical; conditions: copper-induced LDL oxidation, n = 3
# Procedure: The oxidation of LDL was investigated as described by Rattan and Arad. […] The reaction was stopped by adding 50 μL of 1 M EDTA and placing the sample at −20 °C for TBA reactive substance (TBARS) assay. The generation of malonyldialdehyde (MDA) equivalents during LDL oxidation was estimated by the TBARS assay using the method of Steinbrecher et al.. LDL oxidation was carried out as described above. After oxidation, LDL was mixed with 1.5 mL of 0.67% TBA and 1.5 mL of 20% TCA. After placing samples in boiling water (100 °C) for 30 min, the reaction product was kept for 30 min at 25 °C and centrifuged for 15 min at 4 °C. The supernatants were read on a spectrophotometer at 532 nm, blank containing 220 μg/mL LDL only. The yields of MDA were used as a standard and the results were expressed as nanomoles of MDA equivalents.
# human cancer cell line = tested on: human cancer cell line; parameters: method as in PMID 19382453; conditions: cited from earlier work
# [6] = target: T2, porcine pancreatic lipase (PL) (Sus scrofa, UniProt P00591); test: Pancreatic lipase inhibition assay (p-NPB hydrolysis); format: biochemical
# T2 sequence (P00591 1-450): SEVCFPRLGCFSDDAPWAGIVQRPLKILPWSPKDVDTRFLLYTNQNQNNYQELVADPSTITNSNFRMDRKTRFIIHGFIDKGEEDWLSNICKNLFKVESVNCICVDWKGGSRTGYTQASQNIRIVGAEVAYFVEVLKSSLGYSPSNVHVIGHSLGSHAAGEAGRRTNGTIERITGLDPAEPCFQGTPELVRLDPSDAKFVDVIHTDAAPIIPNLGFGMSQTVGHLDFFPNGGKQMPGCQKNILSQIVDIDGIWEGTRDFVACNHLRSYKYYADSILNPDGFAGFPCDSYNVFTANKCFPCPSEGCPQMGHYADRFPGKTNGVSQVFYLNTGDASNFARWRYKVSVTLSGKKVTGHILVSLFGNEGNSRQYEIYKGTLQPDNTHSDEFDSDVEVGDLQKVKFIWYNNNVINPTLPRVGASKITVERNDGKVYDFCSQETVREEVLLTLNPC
# Procedure: The ability of the different parts of crude extracts to inhibit PL was measured as described previously, with slight modifications. Briefly, an enzyme buffer was prepared by the addition of 30 μL (10 units) of PL solution (in 10 mM MOPS and 1 mM EDTA, pH 6.8) to 850 μL of Tris buffer (100 mM Tris-HCl and 5 mM CaCl2, pH 7.0). […] The reaction was allowed to proceed for 15 min at 37 °C after addition of 20 μL of the substrate solution (10 mM p-NPB in dimethyl formamide). The lipase activity was determined by measuring the hydrolysis of p-NPB to p-nitrophenol at 400 nm using microplate reader. Inhibition of the lipase activity was expressed as the percentage decrease in the OD when PL was incubated with the test compounds.
# [7] = tested on: enzymes in the cholesterol biosynthetic pathway; conditions: cited from earlier work
# tyrosinase mushroom = tyrosinase mushroom (Agaricus bisporus, UniProt C7FF04); test: Anti-tyrosinase activity assay; format: biochemical; conditions: n = 3
# Procedure: Tyrosinase activity inhibition was determined by the method as described previously [29]. In brief, sample extracts were dissolved in methanol to make the different concentrations (μg/mL). The 96-well plate was set up in the following order; 120 μL of phosphate buffer (20 mM, pH 6.8), 20 μL of sample and 20 μL of tyrosinase mushroom (500 units/mL in 20 mM phosphate buffer). After incubation at 25 °C for 15 min, reaction was initiated by adding 20 μL of 0.85 mM L-tyrosine solution to each well. The enzyme activity was determined by measuring the absorbance at 470 nm using microplate reader (BioRad, Benchmark microplate reader, Hertfordshire, UK). […] The percentage of tyrosinase inhibition was calculated as follows:
# where, A = absorbance of the control with enzyme; B = absorbance of the control without enzyme; C = absorbance of the test sample with enzyme; D = absorbance of the test sample without enzyme.
# [8] = n = 3, read-out: IC50 15-LO inhibition (converted)
# [9] = n = 3, read-out: IC50 pancreatic lipase (PL) inhibition (converted)
# T1 sequence (P08170 whole entry): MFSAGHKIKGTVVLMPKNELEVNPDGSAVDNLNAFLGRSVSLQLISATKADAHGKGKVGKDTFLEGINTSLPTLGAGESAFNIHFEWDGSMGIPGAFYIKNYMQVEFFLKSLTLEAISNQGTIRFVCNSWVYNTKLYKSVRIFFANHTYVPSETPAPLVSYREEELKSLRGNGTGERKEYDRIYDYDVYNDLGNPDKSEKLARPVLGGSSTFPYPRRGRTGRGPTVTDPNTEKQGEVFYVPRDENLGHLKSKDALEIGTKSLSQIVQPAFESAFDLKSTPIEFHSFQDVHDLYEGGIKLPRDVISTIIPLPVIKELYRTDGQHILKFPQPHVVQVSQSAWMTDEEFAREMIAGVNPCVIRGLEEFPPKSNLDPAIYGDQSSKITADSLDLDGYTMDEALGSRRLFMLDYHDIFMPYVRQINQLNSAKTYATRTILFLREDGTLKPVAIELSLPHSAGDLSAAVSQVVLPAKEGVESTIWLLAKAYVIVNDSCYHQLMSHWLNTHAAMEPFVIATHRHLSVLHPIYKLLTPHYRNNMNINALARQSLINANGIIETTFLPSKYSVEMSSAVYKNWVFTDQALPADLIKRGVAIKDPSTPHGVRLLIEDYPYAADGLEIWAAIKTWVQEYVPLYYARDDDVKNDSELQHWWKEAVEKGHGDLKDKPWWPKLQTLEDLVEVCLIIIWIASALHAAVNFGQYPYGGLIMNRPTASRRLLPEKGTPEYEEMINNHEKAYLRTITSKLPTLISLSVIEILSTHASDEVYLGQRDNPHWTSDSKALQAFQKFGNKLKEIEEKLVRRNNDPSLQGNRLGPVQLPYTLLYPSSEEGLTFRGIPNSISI
# Chain of tyrosinase mushroom (C7FF04 1-392): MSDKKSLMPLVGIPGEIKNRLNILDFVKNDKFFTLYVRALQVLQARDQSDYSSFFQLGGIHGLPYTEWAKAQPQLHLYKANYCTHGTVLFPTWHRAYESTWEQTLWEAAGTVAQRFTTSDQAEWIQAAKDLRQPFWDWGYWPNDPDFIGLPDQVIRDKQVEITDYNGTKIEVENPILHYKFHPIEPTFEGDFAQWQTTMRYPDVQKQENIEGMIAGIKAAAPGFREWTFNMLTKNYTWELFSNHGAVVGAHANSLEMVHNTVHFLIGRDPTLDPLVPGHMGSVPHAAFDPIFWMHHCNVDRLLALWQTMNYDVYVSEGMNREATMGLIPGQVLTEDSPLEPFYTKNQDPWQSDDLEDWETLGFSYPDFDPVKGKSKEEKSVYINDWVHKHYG
smiles,measurement,setting,value
"C[C@]12CC[C@H](O)CC1=CC[C@@H]1[C@@H]2CC[C@]2(C)C(=O)CC[C@@H]12 [dehydroepiandrosterone, 3β-hydroxy-5-androsten-17-one]",effect on development of accelerated atherosclerosis,[1],inhibited the development of accelerated atherosclerosis
same,effect on serum LDL level,[2],reduce serum LDL level
"COc1cc(/C=C/C(=O)O)ccc1O [ferulic acid, reference compound]",IC50 15-LO inhibition,[3]; n = 3,54.79 ± 1.12 µg/mL
"CC(C)CCC[C@@H](C)[C@H]1CC[C@H]2[C@@H]3CC(=O)C4=CC(=O)CC[C@]4(C)[C@H]3CC[C@]12C [cholest-4-ene-3,6-dione]",IC50,[3]; [8],85.8 µM
same,inhibitory activity on proliferation of rat hepatic stellate cells,[4],inhibitory activity
same,IC50 LDL oxidation inhibition,[5],16.12 ± 1.43 µg/mL
same,cytotoxic activity against human cancer cell line,human cancer cell line,cytotoxic activity
same,IC50,[6]; [9],48.9 µM
CC[C@H](CC[C@@H](C)[C@H]1CC[C@H]2[C@@H]3CC=C4C[C@@H](O)CC[C@]4(C)[C@H]3CC[C@]12C)C(C)C [sitosterol],inhibition of enzymes in the cholesterol biosynthetic pathway / cholesterol biosynthesis,[7],could not inhibit
same,IC50 15-LO inhibition,[3]; n = 3,123.34 ± 1.94 µg/mL
same,IC50 tyrosinase inhibition,tyrosinase mushroom,187.77 ± 0.04 µg/mL
same,IC50 LDL oxidation inhibition,[5],97.76 ± 0.77 µg/mL
same,IC50 pancreatic lipase (PL) inhibition,[6]; n = 3,99.99 ± 1.86 µg/mL
CC[C@H](/C=C/[C@@H](C)[C@H]1CC[C@H]2[C@@H]3CC=C4C[C@@H](O)CC[C@]4(C)[C@H]3CC[C@]12C)C(C)C [stigmasterol],inhibition of enzymes in the cholesterol biosynthetic pathway / cholesterol biosynthesis,[7],inhibitory effects
same,IC50,[3]; [8],182 µM
same,IC50 LDL oxidation inhibition,[5],50.01 ± 0.77 µg/mL
same,IC50,[6]; [9],303 µM
"O=c1c(O)c(-c2ccc(O)c(O)c2)oc2cc(O)cc(O)c12 [quercetin, reference compound]",IC50 LDL oxidation inhibition,[5],22.56 ± 0.70 µg/mL
CC(C)[C@H](C)CC[C@@H](C)[C@H]1CC[C@H]2[C@@H]3CC=C4C[C@@H](O)CC[C@]4(C)[C@H]3CC[C@]12C [campesterol],inhibition of enzymes in the cholesterol biosynthetic pathway / cholesterol biosynthesis,[7],could not inhibit
same,IC50,[3],361 µM
same,IC50 LDL oxidation inhibition,[5],149.02 ± 1.93 µg/mL
same,IC50,[6],323 µM
